Results on 1 compound are retold here after PMC12645583 (British journal of haematology, 2025).

In general, IC50 refers to the concentration that gives 50% inhibition. A high value points to weaker potency.

The target of one assay is BTK (Homo sapiens, UniProt Q06187). Briefly: SelectScreen Z-Lyte enzymatic kinase assay at ATP Km app. It counts as biochemical.
The target of the next assay is IRAK1 (Homo sapiens, UniProt P51617). In words: KINOMEscan kinase profiling, % inhibition at […]. It counts as binding.
The target of the next assay is HCK (Homo sapiens, UniProt P08631). In words: SelectScreen Z-Lyte enzymatic kinase assay at ATP Km app. It is filed as biochemical.
Sequence of HCK (P08631 2-526): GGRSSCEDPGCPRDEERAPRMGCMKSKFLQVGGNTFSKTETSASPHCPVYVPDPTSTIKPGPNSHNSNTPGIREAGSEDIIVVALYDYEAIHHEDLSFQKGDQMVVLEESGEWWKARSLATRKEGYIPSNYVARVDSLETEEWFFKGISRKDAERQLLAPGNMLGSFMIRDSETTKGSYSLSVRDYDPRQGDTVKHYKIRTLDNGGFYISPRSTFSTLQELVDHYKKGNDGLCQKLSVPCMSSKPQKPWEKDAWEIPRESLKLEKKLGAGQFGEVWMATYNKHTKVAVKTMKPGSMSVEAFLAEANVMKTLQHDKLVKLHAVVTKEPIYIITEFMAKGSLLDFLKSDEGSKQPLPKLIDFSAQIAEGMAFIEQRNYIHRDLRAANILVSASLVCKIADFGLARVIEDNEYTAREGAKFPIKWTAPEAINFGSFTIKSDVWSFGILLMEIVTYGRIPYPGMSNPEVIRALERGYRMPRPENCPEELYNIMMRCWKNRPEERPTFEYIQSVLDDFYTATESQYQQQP

Sequence of BTK (Q06187 2-659): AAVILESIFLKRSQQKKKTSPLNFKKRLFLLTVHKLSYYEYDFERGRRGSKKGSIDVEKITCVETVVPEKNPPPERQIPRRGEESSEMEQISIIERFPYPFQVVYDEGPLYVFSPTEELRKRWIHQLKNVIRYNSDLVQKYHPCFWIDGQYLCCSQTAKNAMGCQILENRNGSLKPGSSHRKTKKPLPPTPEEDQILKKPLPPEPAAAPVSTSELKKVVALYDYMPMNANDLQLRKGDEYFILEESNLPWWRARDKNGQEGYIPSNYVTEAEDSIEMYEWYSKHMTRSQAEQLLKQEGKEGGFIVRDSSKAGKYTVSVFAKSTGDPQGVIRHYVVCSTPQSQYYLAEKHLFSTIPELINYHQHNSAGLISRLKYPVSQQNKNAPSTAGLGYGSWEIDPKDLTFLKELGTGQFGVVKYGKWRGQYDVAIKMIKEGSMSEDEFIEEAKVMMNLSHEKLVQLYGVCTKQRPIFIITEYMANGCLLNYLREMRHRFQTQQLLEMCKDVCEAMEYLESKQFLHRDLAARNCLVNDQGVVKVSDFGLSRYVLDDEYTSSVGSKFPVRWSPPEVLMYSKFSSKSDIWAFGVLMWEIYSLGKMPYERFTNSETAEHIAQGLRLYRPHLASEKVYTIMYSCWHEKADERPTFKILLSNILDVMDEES
Sequence of IRAK1 (P51617 whole entry): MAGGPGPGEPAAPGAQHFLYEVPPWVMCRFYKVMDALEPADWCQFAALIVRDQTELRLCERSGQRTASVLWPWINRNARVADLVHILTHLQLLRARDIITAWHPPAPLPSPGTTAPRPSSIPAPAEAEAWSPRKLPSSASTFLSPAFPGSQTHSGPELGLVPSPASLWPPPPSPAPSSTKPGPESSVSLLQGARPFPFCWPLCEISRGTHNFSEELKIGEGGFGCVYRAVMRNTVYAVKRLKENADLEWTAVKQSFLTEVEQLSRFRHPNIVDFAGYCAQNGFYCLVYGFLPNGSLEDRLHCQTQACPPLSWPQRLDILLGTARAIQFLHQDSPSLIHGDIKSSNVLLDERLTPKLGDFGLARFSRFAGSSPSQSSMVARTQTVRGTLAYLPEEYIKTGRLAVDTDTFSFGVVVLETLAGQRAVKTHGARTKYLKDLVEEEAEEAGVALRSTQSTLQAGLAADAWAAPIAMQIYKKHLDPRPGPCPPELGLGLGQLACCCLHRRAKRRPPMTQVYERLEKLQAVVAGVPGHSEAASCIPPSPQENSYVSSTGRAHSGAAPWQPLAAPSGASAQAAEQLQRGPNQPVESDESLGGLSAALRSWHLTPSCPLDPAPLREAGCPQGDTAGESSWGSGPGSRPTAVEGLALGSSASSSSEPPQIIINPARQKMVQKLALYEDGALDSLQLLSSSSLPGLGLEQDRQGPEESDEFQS

Turning to `C1=C/COCc2cc(ccc2OCCN2CCCC2)Nc2nccc(n2)-c2cccc(c2)COC/1` [pacritinib], the half-inhibitory concentration (IC50) amounted to 367 nM against BTK and 528 nM at HCK. Moreover, the “%” value on IRAK1 is reported as 99.5%.
